Measurements published in patent US9943504B2, “Arginine methyltransferase inhibitors and uses thereof” (Epizyme, Inc., priority 2013, dated 2018).

Biological target: T1, human PRMT6 (Homo sapiens, UniProt Q96LA8)
T1 construct: Flag-PRMT6-His was eluted with 200 ug/ml FLAG peptide in the same buffer; made in house; host or cells: HEK 293F cells (BacMam baculovirus)
Test: PRMT6 Biochemical Assay
Conditions: biochemical evaluation, peptide substrate
Description: S-adenosylmethionine (SAM), S-adenosylhomocysteine (SAH), bicine, Tween20, dimethylsulfoxide (DMSO), bovine skin gelatin (BSG), sodium butyrate and Tris(2-carboxyethyl)phosphine hydrochloride solution (TCEP) were purchased from Sigma-Aldrich at the highest level of purity possible. ^3H-SAM was purchase from American Radiolabeled Chemicals with a specific activity of 80 Ci/mmol. 384-well streptavidin Flashplates were purchased from PerkinElmer.
Peptide representative of human histone H4 residues 36-50 was synthesized with an N-terminal linker-affinity tag motif and a C-terminal amide cap by 21st Century Biochemicals. The peptide was purified by high-performance liquid chromatography (HPLC) to greater than 95% purity and confirmed by liquid chromatography mass spectrometry (LC-MS). The sequence was Biot-Ahx-[…]-amide and contained a monomethylated lysine at position 44 (SEQ ID NO.: 5). […]
The assays were all performed in a buffer consisting of 20 mM Bicine (pH=7.6), 1 mM TCEP, 0.005% BSG, and 0.002% Tween 20, prepared on the day of use. […] The plates were then read in a PerkinElmer TopCount plate reader to measure the quantity of ^3H-labeled peptide bound to the Flashplate surface, measured as disintegrations per minute (dpm) or alternatively, referred to as counts per minute (cpm). […]

T1 sequence (Q96LA8 with tags, fused parts or gaps): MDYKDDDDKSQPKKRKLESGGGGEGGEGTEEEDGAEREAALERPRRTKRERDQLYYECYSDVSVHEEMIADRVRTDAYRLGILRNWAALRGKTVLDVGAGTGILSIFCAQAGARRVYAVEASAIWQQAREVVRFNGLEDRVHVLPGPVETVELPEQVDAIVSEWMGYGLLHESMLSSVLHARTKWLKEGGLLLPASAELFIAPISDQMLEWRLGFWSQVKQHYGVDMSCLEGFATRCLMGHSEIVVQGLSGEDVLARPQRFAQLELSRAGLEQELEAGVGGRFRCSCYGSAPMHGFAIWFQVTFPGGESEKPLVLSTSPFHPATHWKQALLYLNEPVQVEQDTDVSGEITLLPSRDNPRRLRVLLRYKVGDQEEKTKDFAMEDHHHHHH

For `CN(CCN)Cc1n[nH]c2cccc(OCc3ccccc3)c12` [Compound 1], the IC50 was ≤ 100 nM.
